{
  "source": "patent US20240226255A9",
  "about": "“COMPOSITIONS AND METHODS FOR ACTIVATING NK CELLS” (The Regents of the University of California, priority 2021, published 2024)",
  "key": {"[1]": {"tested_on": "vector-alone transfected HEp2 cells", "experiment": "51Cr release: NK cell lysis of Sulindac treated vector-alone transfected HEp2 cells", "type": "cell-based", "details": "Sulindac 50-200 μm for 3-4 hours, vs non-treated HEp2 cells", "protocol": ". (FIG. 17A) 4×10^6 vector-alone transfected HEp2 cells were labeled with ^51Cr for 1 hour at 37° C. […] Treatment of NK cells with IL-2 was carried out for 8-12 hours before their addition to the target cells. […] After an overnight incubation the cells were washed to remove the drugs, and the tumor cells were then co-cultured in the presence of untreated and IL-2 (500 u/ml) treated NK cells. After 48 hours of incubation the supernatants were removed from the NK-HEp2 cell co-cultures and assayed for released GM-CSF."}, "[2]": {"experiment": "Osteonecrosis of the jaw (ONJ) after ZOL injection and molar extraction", "type": "in vivo", "details": "Rag2−/− mice injected with ZOL", "protocol": "(§1) 7-week old female WT mice, and female Rag2^−/− mice (B6(Cg)-Rag2tm1.1Cgn/J null mutation in recombination-activating gene-2 resulting in the deficiency of B and T lymphocytes) were purchased from the Jackson Laboratory, Bar Harbor, ME. The UCLA Animal Research Committee reviewed and approved all experimental protocols involving animals (ARC 1997-136). Female WT mice and Rag2^−/− mice were injected with the single injection of 500 μg/kg ZOL or 0.9% NaCl vehicle solution via tail vein.\n(§2) After 1-week of the ZOL and NaCl injection maxillary first molar was extracted as described previously. During the extraction procedure, mice were anesthetized via continuous inhalation of 2-4% isoflurane mixed with oxygen and placed on a custom-made surgical table in a supine position using the fixed positioner on the maxillary incisors. Immediately prior to tooth extraction, 5.0 mg/kg carprofen was subcutaneously injected, and mice received 5.0 mg/kg carprofen injection every 24 h for 48 h. Mice were sacrificed and various tissues were studied 4-weeks after the tooth extraction."}, "[3]": {"tested_on": "BM cells, splenocytes, spleen-purified NK cells, oral gingiva cells", "experiment": "IFN-γ ELISA of IL-2 cultured tissue cells from mice given ZOL or NaCl, then molar extraction", "type": "in vivo", "details": "for ZOL-induced decrease in IFN-γ: oral tooth extraction site", "protocol": "as §1, §2\nSingle cell-suspension from each tissue of WT and Rag2^−/− female mice were activated with IL-2 (10,000 U/ml) for 5 days before the supernatants/culture media were harvested after to determine the levels of IFN-γ secretion. IFN-γ ELISAs were performed and standard curve was generated as described previously. A standard curve was generated by either two or three-fold dilution of recombinant IFN-γ provided by the manufacturer to analyze and obtain the IFN-γ concentration (Biolegend, San Diego, CA).\nWT and RAG2 mice were administered with either 0.9% NaCl or ZOL (500 μg/kg) via tail vein followed by maxillary left first molar extraction as described in Materials and Methods section. Week 4 after the tooth extraction, animals were sacrificed, BM cells, splenocytes, splenocytes-purified NK cells and oral gingiva cells were cultured at (1×10^6 cells/ml) each treated with IL-2 (10000 U/ml) for 5 days, after which the supernatants were harvested and the levels of IFN-γ were determined using specific ELISA. Modulation of IFN-7 by ZOL in both WT and RAG2 mice models were determined, and fold change in comparison to NaCl controls was calculated for each tissue."}, "[4]": {"tested_on": "st63 cells", "details": "Rag2−/− mice", "description": "RAG2 mice were administered with either 0.9% NaCl or ZOL (500 μg/kg) via tail vein followed by maxillary left first molar extraction as described in Materials and Methods section. […] Week 4 after the tooth extraction, animals were sacrificed, BM cells (n=9), splenocytes (n=9), and NK cells purified from splenocytes (n=5) were cultured at (1×10^6 cells/ml) each treated with IL-2 (10000 U/ml) for 5 days, after which the cells were used as effector cells against tumor targets. Cytotoxicity assays were performed using standard 4-hour ^51Cr release assay against st63 cells, and the LU 30/10^6 cells were determined using inverse number of cells required to lyse 30% of st63 cells×100 (FIG. 16B).\nSingle cell-suspension from each tissue and spleen-purified NK cells from WT and Rag2^−/− mice female mice were activated with IL-2 (10,000 U/ml) for 5 days and were used as effector cells on day 5. […] After that, the supernatants were harvested from each sample and released radioactivity was counted using the gamma counter. The percentage (%) specific cytotoxicity was calculated as follows:\n% Cytotoxicity=Experimental cpm−spontaneous cpm/Total cpm−spontaneous cpm • Lytic Units (LU) 30/10^6 was calculated by using the inverse of the number of effector cells needed to lyse 30% of tumor target ST63 cells×100."}, "[5]": {"tested_on": "DCs from wild type or Cox-2flox/flox;LysMCre/+ mice", "experiment": "4 h 51Chromium release assay of mouse NK cells ± LPS against monocyte-derived DCs", "type": "cell-based", "details": "IL-2-treated WT NK cells + WT or KO monocytes", "protocol": "(§3) Afterward, NK cells were used as effector cells in a standard 4 h ^51Chromium release assay against YAC-1 cells. […] NK cells were treated as described in (FIG. 4A) and afterward the supernatant was removed from the co-cultures and the levels of IFN-γ secretion were determined using specific ELISAs. *P<0.05 was obtained for differences in secretion of IFN-γ between untreated and LPS-treated NK cells cultured with monocytes from control littermates or those from Cox-2flox/flox;LysMCre/+ mice (FIG. 4B). NK cells were prepared as described in (FIG. 4A) and used as effector cells against DCs derived from monocytes from either wild type or Cox-2flox/flox; LysMCre/+ mice in a standard 4 h ^51Chromium release assay. […] One of several representative experiments is shown in this figure.\n(§4) Similar results to those seen with YAC-1 targets were also seen when control and Cox-2flox/flox;LysMCre/+ DCs were used as targets (FIG. 4C)."}, "[6]": {"tested_on": "YAC-1 cells", "experiment": "4 h 51Chromium release assay of mouse NK cells cultured with monocytes ± LPS against YAC-1", "type": "cell-based", "details": "IL-2-treated WT NK cells + monocytes from control WT littermates; LPS 20 ng/mL", "protocol": "as §3, §4"}, "[7]": {"tested_on": "NK cells", "experiment": "IFN-γ ELISA of mouse NK cell-monocyte co-cultures ± LPS", "type": "cell-based", "details": "LPS 20 ng/mL", "protocol": "as §3, §4"}, "[8]": {"tested_on": "NK cells", "experiment": "IFN-γ ELISA of human NK cell cultures", "type": "cell-based", "details": "LPS 20 ng/mL, 24-48 h", "protocol": "(§5) Afterward, the cytotoxicity against OSCSCs was assessed using a standard 4 h ^51Chromium release assay. […] NK cells were prepared as described in FIG. 5A. […] One of several representative experiments is shown in this figure.\n(§6) Human NK cells were purified from healthy donors and left untreated or treated with IL-2 (1000 U/mL) or the combination of IL-2 (1000 U/mL) and anti-CD16mAb (3 μg/mL) in the presence of sAJ2 (NK cell:sAJ2, 1:3), autologous monocytes (NK cell:monocytes, 1:1) or the combination of sAJ2 (NK cell:sAJ2, 1:3) and autologous monocytes (NK cell:monocytes, 1:1) for 24-48 h. Afterward, the cytotoxicity against OSCSCs cells was assessed using a standard 4 h ^51Chromium release assay. […] NK cells were prepared as described in FIG. 6A and after the treatment period, the supernatants were removed from the co-cultures and the levels of IFN-γ cytokine were measured with specific ELISA. *P<0.05 was obtained for the differences in cytotoxicity and IFN-γ secretion between human NK cells cultured in media and those treated with sAJ2, monocytes or the combination of sAJ2 and monocytes. One of several representative experiments is shown in this figure (FIG. 8B). […] After an overnight incubation, the supernatants were collected and the levels of IFN-γ, IL-15, IFN-α, and IL-12 were determined by ELISAs in a multiplexed format using Luminex technology (FIG. 8C). […]"}, "[9]": {"tested_on": "OSCSCs", "experiment": "4 h 51Chromium release assay of human NK cells against OSCSCs", "type": "cell-based", "details": "LPS 20 ng/mL, 24-48 h", "protocol": "as §5, §6"}},
  "data": [
    {"molecule": "CC1=C(CC(=O)O)c2cc(F)ccc2/C1=C\\c1ccc([S+](C)[O-])cc1", "note": "(stereo not shown) [Sulindac]", "values": [
      {"measurement": "NK cell lysis of treated HEp2 cells", "setting": "[1]", "value": "increased lysis"}
    ]},
    {"molecule": "O=P(O)(O)C(O)(Cn1ccnc1)P(=O)(O)O", "note": "[ZOL, zolendronate]", "values": [
      {"measurement": "ONJ", "setting": "[2]", "value": "no ONJ was seen"},
      {"measurement": "ZOL-induced increase in IFN-γ", "setting": "[3]; BM, Rag2−/− mice", "value": "50-75%"},
      {"measurement": "IFN-γ secretion after ZOL injections", "setting": "[3]; BM, Rag2−/− mice, vs NaCl", "value": "significantly increased"},
      {"measurement": "ZOL-induced increase in IFN-γ", "setting": "[3]; BM, WT mice", "value": "300-500%"},
      {"measurement": "Fold change in IFN-γ secretion (ZOL group/NaCl group)", "setting": "[3]; Bone marrow, Rag2−/− (Rag KO) mice, ZOL 500 μg/kg", "value": "1.5-1.75 fold"},
      {"measurement": "Fold change in IFN-γ secretion (ZOL group/NaCl group)", "setting": "[3]; Bone marrow, WT mice, ZOL 500 μg/kg tail vein, week 4 after tooth extraction, cells + IL-2 5 days", "value": "4-6 fold"},
      {"measurement": "Fold change in IFN-γ secretion (ZOL group/NaCl group)", "setting": "[3]; Gingiva, Rag2−/− (Rag KO) mice, ZOL 500 μg/kg", "value": "0.22-0.35 fold"},
      {"measurement": "Fold change in IFN-γ secretion (ZOL group/NaCl group)", "setting": "[3]; Gingiva, WT mice, ZOL 500 μg/kg", "value": "0.3-0.5 fold"},
      {"measurement": "ZOL-induced drop in IFN-γ", "setting": "[3]; NK cells purified from splenocytes, Rag2−/− mice", "value": "58-65%"},
      {"measurement": "ZOL-induced increase in IFN-γ", "setting": "[3]; NK cells purified from splenocytes, WT mice", "value": "20-90%"},
      {"measurement": "Fold change in IFN-γ secretion (ZOL group/NaCl group)", "setting": "[3]; Spleen, Rag2−/− (Rag KO) mice, ZOL 500 μg/kg", "value": "0.5-0.66 fold"},
      {"measurement": "Fold change in IFN-γ secretion (ZOL group/NaCl group)", "setting": "[3]; Spleen, WT mice, ZOL 500 μg/kg", "value": "2-3.4 fold"},
      {"measurement": "Fold change in IFN-γ secretion (ZOL group/NaCl group)", "setting": "[3]; Spleen-purified NK cells, Rag2−/− (Rag KO) mice, ZOL 500 μg/kg", "value": "0.35-0.42 fold"},
      {"measurement": "Fold change in IFN-γ secretion (ZOL group/NaCl group)", "setting": "[3]; Spleen-purified NK cells, WT mice, ZOL 500 μg/kg", "value": "1.2-1.9 fold"},
      {"measurement": "ZOL-induced decrease in IFN-γ", "setting": "[3]; Rag2−/− mice", "value": "65-78%"},
      {"measurement": "ZOL-induced decrease in IFN-γ", "setting": "[3]; WT mice", "value": "50-70%"},
      {"measurement": "secretion of IFN-γ after ZOL intake", "setting": "[3]; spleen, spleen-purified NK cells and oral gingiva cells, Rag2−/− mice", "value": "blocked"},
      {"measurement": "ZOL-induced drop in IFN-γ", "setting": "[3]; splenocytes, Rag2−/− mice", "value": "34-50%"},
      {"measurement": "ZOL-induced increase in IFN-γ", "setting": "[3]; splenocytes, WT mice", "value": "100-240%"},
      {"measurement": "NK cell-mediated cytotoxicity after ZOL injections", "setting": "[4]; BM, vs NaCl", "value": "significantly increased"},
      {"measurement": "NK cell-mediated cytotoxicity with ZOL", "setting": "[4]; spleen and spleen-purified NK cells", "value": "blocked"}
    ]},
    {"molecule": "Lipopolysaccharide [LPS]", "values": [
      {"measurement": "NK cell cytotoxicity against wild type and Cox-2flox/flox;LysMCre/+ DCs", "setting": "[5]", "value": "decreased"},
      {"measurement": "NK cells' ability to lyse YAC-1 cells", "setting": "[6]", "value": "complete shutdown"},
      {"measurement": "IFN-γ secretion", "setting": "[7]; IL-2-treated WT NK cells + monocytes from Cox-2flox/flox;LysMCre/+ mice", "value": "increasing IFN-γ secretion significantly"},
      {"measurement": "amount of IFN-γ secreted by the NK cells", "setting": "[7]; IL-2-treated WT NK cells + monocytes from control WT littermates", "value": "increased"},
      {"measurement": "IFN-γ secretion", "setting": "[8]", "value": "increasing"},
      {"measurement": "NK cell-mediated cytotoxicity against OSCSCs", "setting": "[9]", "value": "loss"}
    ]}
  ]
}
